From patent US20060223819A1, “Quinoline Derivatives as NK-3 Antagonists” (GlaxoSmithKline S.P.A. & Laboratoire, priority 2000, published 2006)
Where a name gives a salt, the structure may show the parent alone.

| melting point [°C] | SMILES |
| --- | --- |
| 118 to 120 | C[C@@H](NC(=O)c1c(CN2CCNCC2)c(-c2ccccc2)nc2ccccc12)C1CCCCC1 [Example 5, 2-Phenyl-3-piperazin-1-ylmethyl-quinoline-4-carboxylic acid((R)-1-cyclohexyl-ethyl)-amide] |
| 144 to 145 | C[C@H](NC(=O)c1c(CN2CCNC(=O)C2)c(-c2ccccc2)nc2cc3c(cc12)OCCO3)C1CCCCC1 [Example 38, 8-(3-Oxo-piperazin-1-ylmethyl)-7-phenyl-2,3-dihydro-[1,4]dioxino[2,3-g]quinoline-9-carboxylic acid ((S)-1-cyclohexyl-ethyl)-amide] |
| 225 to 230 | C[C@H](NC(=O)c1c(CN2CCNC(=O)C2)c(-c2cccs2)nc2ccccc12)C1CCCCC1 [Example 41, 3-(3-Oxo-piperazin-1-ylmethyl)-2-thiophen-2-yl-quinoline-4-carboxylic acid ((S)-1-cyclohexylethyl)-amide] |
| 240 to 244 | C[C@H](NC(=O)c1c(CN2CCNCC2)c(-c2ccccc2)nc2ccccc12)c1cccc(O)c1 [Example 4, 2-Phenyl-3-piperazin-1-ylmethyl-quinoline-4-carboxylic acid [(S)-1-(3-hydroxy-phenyl)-ethyl]-amide] |
| 251 | C[C@H](NC(=O)c1c(CN2CC(=O)NCC2=O)c(-c2ccccc2)nc2ccccc12)C1CCCCC1 [Example 31, 3-(2,5-Dioxo-piperazin-1-ylmethyl)-2-phenyl-quinoline-4-carboxylic acid ((S)1-cyclohexylethyl)-amide] |
| 181 | C[C@H](NC(=O)c1c(CN2CCN(Cc3ccccc3)C(=O)C2)c(-c2ccccc2)nc2ccccc12)C1CCCCC1 [Example 33, 3-(4-Benzyl-3-oxopiperazin-1-ylmethyl)-2-phenylquinoline-4-carboxylic acid ((S)-1-cyclohexylethyl)-amide] |
| 120 to 121 | C[C@H](NC(=O)c1c(CN2CCN(CCS(C)(=O)=O)CC2)c(-c2ccccc2)nc2ccccc12)C1CCCCC1 [Example 21, 3-[4-(2-Methanesulfonyl-ethyl)-piperazin-1-ylmethyl]-2-phenyl-quinoline-4-carboxylic acid ((S)-1-cyclohexyl-ethyl)-amide] |
| 214 to 217 | C[C@H](NC(=O)c1c(CN2CCNC(=O)C2)c(-c2ccc(C(F)(F)F)cc2)nc2ccccc12)C1CCCCC1 [Example 45, 3-(3-Oxopiperazin-1-ylmethyl)-2-(4-trifluoromethylphenyl)quinoline-4-carboxylic acid ((S)-1-cyclohexylethyl)-amide] |
| 124 | C[C@H](NC(=O)c1c(CN2CC(=O)NC(=O)C2)c(-c2ccccc2)nc2ccccc12)C1CCCCC1 [Example 29, 3-(3,5-Dioxopiperazin-1-ylmethyl)-2-phenylquinoline-4-carboxylic acid ((S)-1-cyclohexylethyl)-amide] |
| 144 to 145 | C[C@H](NC(=O)c1c(CN2CCN(CC(C(=O)O)c3ccccc3)CC2)c(-c2ccccc2)nc2ccccc12)C1CCCCC1 (stereo partly drawn) [Example 22, 3-{4-[4-((S)-1-Cyclohexyl-ethylcarbamoyl)-2-phenyl-quinolin-3-ylmethyl]-piperazin-1-yl}-2-phenyl-propionic acid] |
| 171 to 173 | C[C@H](NC(=O)c1c(CN2CCN(CCO)C(=O)C2)c(-c2ccccc2)nc2ccccc12)C1CCCCC1 (as salt: hydrochloride) [Example 37, 3-[4-(2-Hydroxyethyl)-3-oxopiperazin-1-ylmethyl]-2-phenylquinoline-4-carboxylic acid ((S)-1-cyclohexyl-ethyl)-amide dihydrochloride] |
| 163 | C[C@H](NC(=O)c1c(CN2CCNCC2)c(-c2ccccc2)nc2ccccc12)c1ccc(O)cc1 [Example 6, 2-Phenyl-3-piperazin-1-ylmethyl-quinoline-4-carboxylic acid [(S)-1-(4-hydroxy-phenyl)-ethyl]-amide] |
| 150 | CCCN1CCN(Cc2c(-c3ccccc3)nc3ccccc3c2C(=O)N[C@@H](C)C2CCCCC2)CC1=O [Example 36, 3-(3-Oxo-4-propyl-piperazin-1-ylmethyl)-2-phenyl-quinoline-4-carboxylic acid ((S)-1-cyclohexyl-ethyl)-amide] |
| 109 to 111 | COc1ccc([C@H](C)NC(=O)c2c(CN3CCNCC3)c(-c3ccccc3)nc3ccccc23)cc1 [Example 2, 2-Phenyl-3-piperazin-1-ylmethyl-quinoline-4-carboxylic acid[(S)-1-(4-methoxy-phenyl)-ethyl]-amide] |
| 170 to 175 | CC(C)[C@H](NC(=O)c1c(CN2CCN(/C(=C/[N+](=O)[O-])N3CCCC3)CC2)c(-c2ccccc2)nc2ccccc12)c1ccccc1 [Example 13, 3-[4-(2-Nitro-1-pyrrolidin-1-yl-vinyl)-piperazin-1-ylmethyl]-2-phenyl-quinoline-4-carboxylic acid ((S)-2-methyl-1-phenyl-propyl)-amide] |
| 192 to 195 | C[C@H](NC(=O)c1c(CN2CCN(CCC(=O)O)CC2)c(-c2ccccc2)nc2ccccc12)C1CCCCC1 [Example 18, 3-{4-[4-((S)-1-Cyclohexyl-ethylcarbamoyl)-2-phenyl-quinolin-3-ylmethyl]-piperazin-1-yl}-propionic acid] |

| melting point [°C] | SMILES |
| --- | --- |
| 156 to 158 | CC(C)[C@H](NC(=O)c1c(CN2CCN(CC(C(=O)O)c3ccccc3)CC2)c(-c2ccccc2)nc2ccccc12)c1ccccc1 (stereo partly drawn) [Example 16, 3-{4-[4-((S)-2-Methyl-1-phenyl-propylcarbamoyl)-2-phenyl-quinolin-3-ylmethyl]-piperazin-1-yl}-2-phenyl-propionic acid] |
| 135 to 137 | C[C@H](NC(=O)c1c(CN2CCNCC2)c(-c2ccccc2)nc2cc3c(cc12)OCCO3)C1CCCCC1 [Example 9, 7-Phenyl-8-piperazin-1-ylmethyl-2,3-dihydro-[1,4]dioxino[2,3-g]quinoline-9-carboxylic acid ((S)-1-cyclohexyl-ethyl)-amide] |
| 90 to 91 | CCOC(=O)C(CN1CCN(Cc2c(-c3ccccc3)nc3ccccc3c2C(=O)N[C@@H](C)C2CCCCC2)CC1)c1ccccc1 (stereo partly drawn) [Example 20, 3-{4-[4-((S)-1-Cyclohexyl-ethylcarbamoyl)-2-phenyl-quinolin-3-ylmethyl]-piperazin-1-yl}-2-phenyl-propionic acid ethyl ester] |
| 160 | CC[C@H](NC(=O)c1c(CN2CCNC(=O)C2)c(-c2ccccc2)nc2ccccc12)c1ccccc1 [Example 40, 3-(3-Oxo-piperazin-1-ylmethyl)-2-phenyl-quinoline-4-carboxylic acid((S)-1-phenyl-propyl)-amide] |
| 147 to 153 | COc1cccc([C@H](C)NC(=O)c2c(CN3CCNCC3)c(-c3ccccc3)nc3ccccc23)c1 [Example 3, 2-Phenyl-3-piperazin-1-ylmethyl-quinoline-4-carboxylic acid[(S)-1-(3-methoxy-phenyl)-ethyl]-amide] |
| 212 | C[C@H](NC(=O)c1c(CN2CCNCC2=O)c(-c2ccccc2)nc2ccccc12)C1CCCCC1 [Example 30, 3-(2-Oxopiperazin-1-ylmethyl)-2-phenylquinoline-4-carboxylic acid ((S)-1-cyclohexylethyl)-amide] |
| 163 to 165 | C[C@H](NC(=O)c1c(CN2CCNC(=O)C2)c(-c2ccccc2)nc2cc(F)ccc12)C1CCCCC1 [Example 35, 7-Fluoro-3-(3-oxopiperazin-1-ylmethyl)-2-phenylquinoline-4-carboxylic acid ((S)-1-cyclohexyl-ethyl)-amide] |
| 167 to 169 | C[C@H](NC(=O)c1c(CN2CCNC(=O)C2)c(-c2ccccc2F)nc2ccccc12)C1CCCCC1 [Example 46, 2-(2-Fluorophenyl)-3-(3-oxopiperazin-1-ylmethyl)-quinoline-4-carboxylic acid ((S)-1-cyclohexyl-ethyl)-amide] |
| 230 | C[C@H](NC(=O)c1c(CN2CCNC(=O)C2)c(-c2ccccc2)nc2ccc(F)cc12)C1CCCCC1 [Example 32, 6-Fluoro-3-(3-oxo-piperazin-1-ylmethyl)-2-phenyl-quinoline-4-carboxylic acid ((S)-1-cyclohexyl-ethyl)-amide] |
| 160 | C[C@H](NC(=O)c1c(CN2CCN(CCN3CCCCC3)C(=O)C2)c(-c2ccccc2)nc2ccccc12)C1CCCCC1 [Example 43, 3-[3-Oxo-4-(2-piperidin-1-ylethyl)piperazin-1-ylmethyl]-2-phenylquinoline-4-carboxylic acid ((S)-1-cyclohexylethyl)amide] |
| 137 | CC(C)[C@H](NC(=O)c1c(CN2CCNC(=O)C2)c(-c2ccccc2)nc2ccccc12)c1ccccc1 [Example 42, 3-(3-Oxo-piperazin-1-ylmethyl)-2-phenyl-quinoline-4-carboxylic acid ((S)-2-methyl-1-phenyl-propyl)-amide] |
| 125 to 130 | C[C@H](NC(=O)c1c(CN2CCN(CC(N)=O)CC2)c(-c2ccccc2)nc2ccccc12)C1CCCCC1 [Example 19, 3-(4-Carbamoylmethyl-piperazin-1-ylmethyl)-2-phenyl-quinoline-4-carboxylic acid ((S)-1-cyclohexyl-ethyl)-amide] |
| 164 to 165 | C[C@H](NC(=O)c1c(CN2CCN(/C(=C/[N+](=O)[O-])N3CCCC3)CC2)c(-c2ccccc2)nc2ccccc12)c1ccccc1 [Example 12, 3-[4-(2-Nitro-1-pyrrolidin-1-yl-vinyl)-piperazin-1-ylmethyl]-2-phenyl-quinoline-4-carboxylic acid ((S)-1-phenyl-ethyl)-amide] |
| 165 | C[C@H](NC(=O)c1c(CN2CCNC(=O)C2)c(-c2ccccc2)nc2c(F)cccc12)C1CCCCC1 [Example 39, 8-Fluoro-3-(3-oxo-piperazin-1-ylmethyl)-2-phenylquinoline-4-carboxylic acid ((S)-1-cyclohexyl-ethyl)-amide] |
| 130 to 132 | COc1cc2nc(-c3ccccc3)c(CN3CCNCC3)c(C(=O)N[C@@H](C)C3CCCCC3)c2cc1OC [Example 10, 6,7-Dimethoxy-2-phenyl-3-piperazin-1-ylmethyl-quinoline-4-carboxylic acid ((S)-1-cyclohexyl-ethyl)-amide] |
